Assay results taken from patent publication EP1200395B1, “UREA DERIVATIVES AS INHIBITORS OF CCR-3 RECEPTOR” (KIRIN BEER KABUSHIKI KAISHA, priority 1999, dated 2001).

The compounds below were run against T1, CCR-3 (Homo sapiens, UniProt P51677) (assay: Eotaxin-induced chemotaxis of CCR-3 transfectant cells (CCR3/U937)). Details: 10 µM test compound; eotaxin 1 x 10^-9 M; CCR3/U937 cells (Table 3a).
T1 sequence (P51677 1-355): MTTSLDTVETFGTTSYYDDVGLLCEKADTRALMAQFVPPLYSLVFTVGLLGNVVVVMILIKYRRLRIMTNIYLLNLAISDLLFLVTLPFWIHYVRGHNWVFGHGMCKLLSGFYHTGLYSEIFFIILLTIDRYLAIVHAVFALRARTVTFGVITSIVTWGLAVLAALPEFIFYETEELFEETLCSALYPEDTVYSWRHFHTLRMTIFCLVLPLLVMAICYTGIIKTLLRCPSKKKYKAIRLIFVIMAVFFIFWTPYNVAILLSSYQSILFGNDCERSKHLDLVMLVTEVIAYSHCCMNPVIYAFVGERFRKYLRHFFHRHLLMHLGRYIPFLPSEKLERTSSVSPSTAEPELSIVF
Type: cell-based
Design: expressed in transfected cells; host or cells: U937
Experimental: The inhibitory activity of the compounds against eotaxin-induced chemotaxis was determined by measuring the inhibition of migration of CCR-3 transfectant cells (CCR3/U937), using a minor modification of the method described by Ohashi, H. et al., Int Arch Allergy Immunol. […] The chemotaxis assay was performed in a 24-well culture plate. Human eotaxin suspended in assay medium was added to the wells at 1 x 10^-9 M along with test compounds at various concentrations. For a positive control, eotaxin was added to the wells without a test compound, and for a negative control, neither eotaxin nor a test compound was added to the wells. Chemotaxicell (Kurabo Co., Ltd.) having 5 micrometers pore size were inserted into each well and 100 micro liters of CCR-3 transfectant cells suspension were added to the top chamber. The plates were incubated at 37 °C for 1 hour. After incubation, migrated cells in lower wells were diluted and counted by particle size distribution analyzer (CDP-500, Sysmex Co., Ltd.).

Structure (SMILES) | Chemotaxis Assay 10 µM (inhibition %)
CCN(CCCCNC(=O)Nc1ccc([N+](=O)[O-])cc1)CCc1ccc(Cl)cc1 [Compound 5] | 99%
CCN(CCCCNC(=O)Nc1ccccc1)CCc1ccc(Cl)cc1 [Compound 7] | 99%
CCN(CCCCCNC(=O)Nc1ccccc1)CCc1ccc(Cl)cc1 [Compound 8] | 94%
CCN(CCCNC(=O)Nc1ccccc1)CCc1ccccc1 [Compound 11] | 86%
CCCCN(CCCNC(=O)Nc1ccccc1)CCc1ccc(Cl)cc1 [Compound 14] | 97%
N#Cc1ccc(CN(CCCNC(=O)Nc2ccccc2)CCc2ccc(Cl)cc2)cc1 [Compound 16] | 63%
O=C(NCCCN(CCc1ccc(Cl)cc1)Cc1ccncc1)Nc1ccccc1 [Compound 24] | 100%
O=C(NCCCN(CCc1ccc(Cl)cc1)Cc1ccccc1)Nc1ccccc1 [Compound 28] | 76%
COC(=O)CCCN(CCCNC(=O)Nc1ccc(Br)cc1)C1CCCc2ccccc21 (centres unmarked) [Compound 29, methyl 4-[[3-(4-bromophenylureido)propyl](1,2,3,4-tetrahydro-1-naphthyl)amino]butylate] | 100%
COC(=O)CCCN(CCCNC(=O)Nc1ccc(Br)cc1)[C@H](C)c1ccccc1 [Compound 30, Methyl 4-[[3-(4-bromophenylureido)propyl][(1R)-1-phenylethyl]-amino]butylate] | 100%
COC(=O)CCCN(CCCNC(=O)Nc1ccc(Br)cc1)CCc1ccc(Cl)cc1 [Compound 31, Methyl 4-[[3-(4-bromophenylureido)pcopyl][2-(4-chlorophenyl)-ethyl]amino]butylate] | . 97%
COC(=O)CCCN(CCCCNC(=O)Nc1ccc(Br)cc1)C1CCCc2ccccc21 (centres unmarked) [Compound 32, Methyl 4-[[4-(4-bromophenylureido)butyl](1,2,3,4-tetrahydro-1-naphthyl)amino]butylate] | 99%
COC(=O)CCCN(CCCCCNC(=O)Nc1ccc(Br)cc1)C1CCCc2ccccc21 (centres unmarked) [Compound 33, Methyl 4-[[5-(4-bromophenylureido)penryl](1,2.3,4-tetrahvdro-1-naphthyl)amino]burylate] | 95%
COC(=O)CCCN(CCCNC(=O)Nc1ccc(C)cc1)C1CCCc2ccccc21 (centres unmarked) [Compound 34, Methyl 4-[[3-(4-methylphenylureido)propyl](1,2,3,4-tetrahydro-1-naphthyl)amino]butylate] | 96%
COC(=O)CCCN(CCCNC(=O)Nc1ccc(Cl)c(Cl)c1)C1CCCc2ccccc21 (centres unmarked) [Compound 35, Methyl 4-[[3-(3,4-dichlorophenylureido)propyl](1,2,3,4-tetrahydro-1-naphthyl)amino]burylate] | 100%
COC(=O)CCCN(CCCNC(=O)Nc1ccc(Br)cc1)Cc1ccccc1 [Compound 37] | 100%
COC(=O)CCCN(CCCNC(=O)Nc1ccc(Br)cc1)Cc1ccc2c(c1)OCO2 [Compound 40] | 88%
COC(=O)CCCN(CCCNC(=O)Nc1ccc(Br)cc1)CCc1ccccc1 [Compound 42] | 96%
COC(=O)CCCN(CCCNC(=O)Nc1ccc(Br)cc1)C(Cc1ccccc1)c1ccccc1 (centres unmarked) [Compound 45] | 62%

Structure (SMILES) | Chemotaxis Assay 10 µM (inhibition %)
COC(=O)CCCN(CCCNC(=O)Nc1ccc(Br)cc1)Cc1ccncc1 [Compound 48] | 34%
COC(=O)CCCN(CCCNC(=O)Nc1ccccc1)CCc1ccc(Cl)cc1 [Compound 49] | 100%
COC(=O)CCCN(CCCNC(=O)Nc1cccc(Cl)c1)C1CCCc2ccccc21 (centres unmarked) [Compound 51] | 100%
COC(=O)CCCN(CCCNC(=O)Nc1cccc(C)c1)C1CCCc2ccccc21 (centres unmarked) [Compound 52] | 100%
COC(=O)CCCN(CCCNC(=O)Nc1ccc(Cl)c(C(F)(F)F)c1)C1CCCc2ccccc21 (centres unmarked) [Compound 53] | 93%
COC(=O)CCCN(CCCNC(=O)Nc1ccccc1-c1ccccc1)C1CCCc2ccccc21 (centres unmarked) [Compound 54] | 19%
COC(=O)CCCN(CCCNC(=O)Nc1ccc(OC)cc1OC)C1CCCc2ccccc21 (centres unmarked) [Compound 55] | 38%
COC(=O)CCCN(CCCNC(=O)Nc1ccccc1)C1CCCc2ccccc21 (centres unmarked) [Compound 56] | 100%
COC(=O)CCCN(CCCNC(=O)Nc1ccc(OC)cc1)C1CCCc2ccccc21 (centres unmarked) [Compound 57] | 100%
COC(=O)CCCN(CCCNC(=O)Nc1ccc(Oc2ccccc2)cc1)C1CCCc2ccccc21 (centres unmarked) [Compound 58] | 100. %
COC(=O)CCCN(CCCNC(=O)Nc1cccc2ccccc12)C1CCCc2ccccc21 (centres unmarked) [Compound 59] | 87%
O=C(O)CCCN(CCCNC(=O)Nc1ccc(Br)cc1)Cc1ccco1 [Compound 68] | 31%
O=C(O)CCCN(CCCNC(=O)Nc1ccc(Br)cc1)Cc1cccs1 [Compound 69] | 81%
O=C(O)CCCN(CCCNC(=O)Nc1ccc(Br)cc1)Cc1ccc2c(c1)OCO2 [Compound 70] | 89%
O=C(O)CCCN(CCCNC(=O)Nc1ccc(Br)cc1)Cc1ccc(C(F)(F)F)cc1 [Compound 71] | 64%
O=C(O)CCCN(CCCNC(=O)Nc1ccc(Br)cc1)CCc1ccccc1 [Compound 72] | 68%
COc1ccc(CCN(CCCNC(=O)Nc2ccc(Br)cc2)CCCC(=O)O)cc1OC [Compound 73] | 44%
O=C(O)CCCN(CCCNC(=O)Nc1ccc(Br)cc1)CCc1c[nH]c2ccccc12 [Compound 74] | 50%
O=C(O)CCCN(CCCNC(=O)Nc1ccc(Br)cc1)C(Cc1ccccc1)c1ccccc1 (centres unmarked) [Compound 75] | 68%

Same assay, conditions: U-937; 10 µM test compound; eotaxin 1 x 10^-9 M; CCR3/U937 cells (Table 3a)

Structure (SMILES) | inhibition at 10 µM
CCN(CCCNC(=O)Nc1ccc([N+](=O)[O-])cc1)CCc1ccc(Cl)cc1 [Compound 2, N-(4-Nitrophenylcarbamoyl)-N'-[2-(4-chlorophenyl)ethyl]-N'-ethyl-1,3-diaminopropane] | 100%
CCN(CCCNC(=O)Nc1ccc(Cl)cc1)CCc1ccc(Cl)cc1 [Compound 6] | 100%
CCN(CCCNC(=O)Nc1ccccc1OC)CCc1ccc(Cl)cc1 [Compound 9] | 100%
CCCN(CCCNC(=O)Nc1ccccc1)CCc1ccc(Cl)cc1 [Compound 10, N-Phenylcarbamoyl-N'-[2-(4-chlorophenyl)ethyl]-N'-propyl-1,3-diaminopropane] | 99%
O=C(NCCCN(CCc1ccc(Cl)cc1)Cc1ccc(Cl)cc1)Nc1ccccc1 [Compound 17] | 51%
COc1ccc(CN(CCCNC(=O)Nc2ccccc2)CCc2ccc(Cl)cc2)cc1 [Compound 18] | 58%
CC(C)(C)c1ccc(CN(CCCNC(=O)Nc2ccccc2)CCc2ccc(Cl)cc2)cc1 [Compound 19] | 47%
O=C(NCCCN(CCc1ccc(Cl)cc1)Cc1cnc2ccccc2c1)Nc1ccccc1 [Compound 20] | 26%
Cc1ccc(CN(CCCNC(=O)Nc2ccccc2)CCc2ccc(Cl)cc2)cc1 [Compound 21] | 40%
CCOC(=O)c1ccc(CN(CCCNC(=O)Nc2ccccc2)CCc2ccc(Cl)cc2)o1 [Compound 22] | 25%
O=C(NCCCN(CCc1ccc(Cl)cc1)Cc1cccnc1)Nc1ccccc1 [Compound 23] | 82%
O=C(NCCCN(CCc1ccccc1)CCc1ccc(Cl)cc1)Nc1ccccc1 [Compound 25] | 88%
CN(CCCNC(=O)Nc1ccccc1)CCc1ccc(Cl)cc1 [Compound 27] | 97%
COC(=O)CCCN(CCCNC(=O)Nc1ccc(Br)cc1)Cc1cccs1 [Compound 39] | 78%
COC(=O)CCCN(CCCNC(=O)Nc1ccc(Br)cc1)CCc1ccc(OC)c(OC)c1 [Compound 43] | 50%
O=C(O)CCCN(CCCCNC(=O)Nc1ccc(Br)cc1)C1CCCc2ccccc21 (centres unmarked) [Compound 62, 4-[[4-(4-Bromophenylureido)butyl](1,2,3,4-tetrahydro-1-naphthyl)-amino]butanoic acid] | 98%
O=C(O)CCCN(CCCCCNC(=O)Nc1ccc(Br)cc1)C1CCCc2ccccc21 (centres unmarked) [Compound 63, 4-[[5-(4-Bromophenylureido)pentyl](1,2,3,4-tetrahydro-1-naphthyl)-amino]butanoic acid] | 100%
Cc1ccc(NC(=O)NCCCN(CCCC(=O)O)C2CCCc3ccccc32)cc1 (centres unmarked) [Compound 64, 4-[[3-(4-Methylphenylureido)propyl](1,2,3,4-tetrahydro-1-naphthyl)-amino]butanoic acid] | 100%
